Test results taken from a melting point compilation (Tetko et al.; mined from patent text by program, amines drawn as free bases though some values may be those of a salt).

Structure (SMILES) | melting point
OC1CSC(Oc2ccccc2-c2ccoc2)C(O)C1O (stereo unspecified) | 102 °C
CN1CCN(C2=N/C(=C\c3c[nH]c4ncc(-c5ccccc5)cc34)C(=O)N2)CC1 | 304 °C
CC(C)(C)CC(SC1CCCCC1)c1c(O)cc(-c2ccccc2)oc1=O (stereo unspecified) | > 225 °C
COC1C=C(C)C(=O)CC(C)(C)C1OC(=O)c1ccc2nc[nH]c2c1 (stereo unspecified) | 155 to 157 °C
COCOc1ccc(C(CS(=O)(=O)c2ccc(-c3ccc(C(F)(F)F)cc3)cc2)N(O)C=O)cc1 (stereo unspecified) | 137 to 138 °C
O=C(O)CCCCCCc1cncc2ccccc12 | 108 to 109 °C
CCCCCCCCCCCCCCCCCCOc1cc(OCCCOc2ccccc2OCc2ccccc2)cc(C(=O)OCc2ccccc2)c1 | 49 to 50 °C
CC(C)(C)c1ccc(S(=O)(=O)N2c3ccccc3C[C@H]2C(=O)NCc2ccc(C(=O)O)cc2)cc1 | 105 to 120 °C
CCCOc1ccc(-c2ccc(Cl)nn2)cc1OC | 132 °C
O=C(c1ccccc1)N1CC2C(C1)C2Nc1ncc2cc(-c3ccccc3Cl)c(=O)n(-c3ccc(F)cc3)c2n1 (stereo unspecified) | 242 to 244 °C
COc1ccc2ccccc2c1CC(NC(C)=O)C(=O)O (stereo unspecified) | 201 °C
Cc1nsc(NC(=O)Cc2ccc3oc(CC(C)(C)C)nc3c2)c1Cl | 144 to 145 °C
CNC(=O)c1cccc(C2C(C(=O)c3ccc(OC)cc3)=C(O)C(=O)N2c2nnc(C)s2)c1 (stereo unspecified) | 238 °C
CCOC(=O)C1=C(C)NC(C)=C(C#N)C1c1ccnc2ncc(-c3ccccc3)cc12 (stereo unspecified) | 265 °C
CCOc1cc(CCNC(=O)Cn2c(C#N)ccc2-c2ccc3c(c2)C(C)(C)OC(=O)N3)ccc1OC | 160 to 162 °C
COc1ccc(CCNc2nc(N)c3nc(-c4ccco4)oc3n2)cc1 | 194 to 196 °C
CCc1oc2ccc(Cl)cc2c1C(=O)c1ccc(Cl)c(S(N)(=O)=O)c1 | 130 to 133 °C
c1ccc(-c2nc(-c3ccc4c(c3)OCO4)c3cc4c(cc3n2)OCO4)cc1 | 225 to 230 °C
[N-]=[N+]=Nc1cc2ccccc2oc1=O | 108 to 112 °C
CN(C)C(=O)NCc1ccc(Nc2n[nH]c3ncnc(Nc4cccc(Cl)c4)c23)cc1 | 238 to 240 °C
CNC(=S)Nc1cc(SC)ccc1N1CCOCC1 | 132 to 133 °C
CCCN(CC)c1cc(C)nc(Oc2c(C)cc(Cl)cc2C)c1C | 74 to 76 °C
CCCCC(Cn1cncn1)(C(=O)O)c1ccccc1OC (stereo unspecified) | 198 °C
Cn1cc(-c2cc3cccnc3[nH]2)c2cc(NS(C)(=O)=O)ccc21 | 223 to 224 °C
O=C1c2cccc([N+](=O)[O-])c2C2CC3(CCN12)SCCS3 (stereo unspecified) | 185 °C
CC(C)(C)OC(=O)C(Nc1ccccc1)c1ccc(Cl)cc1 (racemic) | 98 °C

Structure (SMILES) | melting point
CCCc1cc(Cl)c2oc(C(=O)c3ccc(Cl)cc3)c(C)c2c1OC(=O)c1ccc(Cl)cc1 | 177 to 182 °C
CCC(C)(NC(=O)c1cc(Cl)c(N)c(Cl)c1)C(=O)CCl (stereo unspecified) | 134 to 138 °C
Cn1cc(C2=C(c3cn(CCCSc4ncc[nH]4)c4ccccc34)C(=O)NC2=O)c2ccccc21 | 130 to 132 °C
CC(NCCO)c1ccccc1 (stereo unspecified) | 60 °C
Cc1c(NC(=O)c2ccc(-c3ccc(F)cc3)c(F)c2)ccc2cc(CN3CCCCCC3)cnc12 | 162 to 163 °C
CCOC(=O)C1=C(C)NC(N)=C(C(=O)OCC)C1C (stereo unspecified) | 140 °C
Cc1ccc(S(=O)(=O)N2CCCC2c2ccccc2Cl)cc1 (racemic) | 149 °C
CCCCCS(=O)(=O)NC(=O)/C=C/c1ccc(OC(C)C)cc1Oc1ncc(C(F)(F)F)cc1Cl | 142 to 144 °C
OCc1ccccc1SCc1cc2c(cc1O)CCCO2 | 140 to 141 °C
CCOC(=O)C(Cc1ccc(O)cc1)Oc1ccc(Cl)cc1 (stereo unspecified) | 90 to 93 °C
C[C@@H](c1ccc(-c2ccn(C3CC3)c(=O)c2)cc1)N1CC[C@](CC(C)(C)O)(c2ccccc2)OC1=O | 91 to 94 °C
CC(C)C(NC(=O)Nc1ccc(C(=O)NCC(=O)OCc2ccccc2)cc1)C(=O)N1CCCC1C(=O)NC(C(=O)C(F)(F)F)C(C)C (mixture of isomers) | 65 to 70 °C
COc1cccc(C(CN2CCN(c3cncc(Cl)n3)CC2)C2(O)CCCCC2)c1 (stereo unspecified) | 157 to 158 °C
COC(=O)c1ccccc1S(=O)(=O)NC(=O)Nc1nnc(C)c(C)n1 | 150 to 151 °C
CCCC1=NN=C2C1=C1C=CC=CN1C(=O)C2C#N (stereo unspecified) | 298 to 300 °C
CC1=NC(C)(C)SC1=NO | 159 to 161 °C
Cc1nsc(CCCOc2c(C)cc(-c3noc(C)n3)cc2C)n1 | 67 to 71 °C
O=c1c(Cc2ccc(-c3ccccc3)cc2)coc2cc(OS(=O)(=O)C(F)(F)F)ccc12 | 110 °C
COc1cc(Br)c(OC)c(CC(=O)O)c1 | 62 to 65 °C
O=C(O)c1cc2c(c(O)c1Br)OCO2 | 196 to 205 °C
CCOC(=O)CCNC=C(C(=O)OCC)C(=O)c1cc(F)c(Cl)c([N+](=O)[O-])c1Cl | 107 to 108 °C
CC(C)(C)OC(=O)N1CCC(C(=O)O)(C2CCCCC2)CC1 | 156 °C
Cc1ccc(-c2cnc(-c3cc(C(F)(F)F)cs3)s2)s1 | 131 to 133 °C
CCOC(=O)C1=C[C@H](NC(=O)OC(C)(C)C)[C@@H](NC(C)=O)[C@@H]2OC(C)(C)O[C@H]12 | 174 to 175 °C
Fc1ccccc1N1CCN(CCCCNc2ccc(-c3ccccc3)cn2)CC1 | 95 °C
O=C(O)COc1ccccc1OCCC(c1ccccc1)(c1ccccc1)c1ccccc1 | 137 to 139 °C

Structure (SMILES) | melting point
COc1cc(F)nc(N)n1 | 171 to 173 °C
Nc1ccncc1Oc1ccc2ccccc2c1 | 117 to 118 °C
O=S(=O)(c1ccc(F)cc1)n1ccc2ccccc21 | 135 to 137 °C
C/C(=C\c1ccc2c(c1)OCO2)C(=O)O | 205 °C
Oc1ccccc1OCCCN1CCC(=C(c2ccc(F)cc2)c2ccc(F)cc2)CC1 | 125 to 127 °C
CCOc1ccc2c(c1)c(-c1ccc3c(c1)OCO3)c(C(=O)OC)c(=O)n2Cc1ccccc1OC | 157 to 158 °C
CC(C)COc1ccc(C(=O)NCC(=O)O)cc1 | 140 to 142 °C
COC(=O)c1nc(CI)n(-c2ccc(Cl)cc2C(=O)c2ccccc2Cl)n1 | 125 to 128 °C
CCC(C)(NC(=O)c1cc(Cl)cc(Cl)c1)C(=O)CCl (stereo unspecified) | 159 to 161 °C
CC(C)c1cccc(C(C)C)c1NC(=O)CN1CC2(CCCCC2)N(c2ccccc2)C1=O | 107 to 109 °C
CC(C)c1ncc(O)cn1 | 184 °C
CCCCCCCCCCC1(CCCCCCCCCC)c2cc(Br)ccc2-c2ccc(I)cc21 | 43 to 45 °C
COC(=O)[C@@H](Cc1ccccc1)NC(=O)OCc1cc2cc(-c3ccccc3)ccc2o1 | 85 to 86 °C
Cc1cc(C)n(-c2ccc(N(C)N)nn2)n1 | 93 to 94 °C
CCN1CSCN(CC)C1=S | 94 to 97 °C
COC(=O)C1=C(C)NC(=S)N(C(=O)OC(C)C)C1c1cccc([N+](=O)[O-])c1 (stereo unspecified) | 157 to 158 °C
CC(C)N(C(=O)c1ccc(CN2CCOc3cnccc32)c(Br)c1)C1CCCCC1 | 191 to 192 °C
CC(=O)c1cnc(-c2ccccc2)c(-c2ccc(=O)n(C(C)C)n2)c1 | 207 to 208 °C
Cc1ccc(C2CCN(C(=O)CCC(=O)c3ccc4c(c3)CNCC4)CC2)cc1 | 119 to 120 °C
CCCCS(=O)(=O)Nc1ccc(Oc2cc(C)cc3cccnc23)cc1 | 189 to 190 °C
COc1ccc(/C(=C\C(=O)N2CCNCC2)c2ccccc2Cl)cc1 | 108 to 110 °C
CC(=O)c1ccc(CCN2CCN(c3ccc(Cl)cc3)CC2)cc1 | 141 to 143 °C
N#Cc1cccc(-c2csc(N=C(N)N)n2)n1 | > 300 °C
CCCCCCCCCCCCCCCC(=O)Nc1cccc(C(=O)O)c1C | 163 to 165 °C
N#CCC1CCN1C(c1ccccc1)c1ccccc1 (stereo unspecified) | 82 to 85 °C
CC(C)Sc1c(C(=O)O)oc(Br)c1Br | 130 to 131 °C

Structure (SMILES) | melting point
Cc1cn(COCCOC(=O)c2ccccc2)c(=O)[nH]c1=O | 94 to 99 °C
COc1cccc(-c2ccc3c(c2)NC(=O)OC3(C)C)c1 | 167 to 168 °C
N#CC(=NNc1ccc(C(=O)O)cc1)C(N)=C(C#N)C#N | > 300 °C
CCOc1ccc(C=Nc2ccc(S(=O)(=O)NC(C)(C)C)cc2)cc1 | 188 °C
COc1ccc(C(=N)c2ccc(Cl)cc2)c(O)c1 | 212 to 214 °C
CC(C)(CO)NCc1ccccc1 | 46 to 47 °C
Cc1ccc(S(=O)(=O)N2CCC(Sc3ccc(Cl)c(Cl)c3)CC2)cc1 | 79 to 80 °C
CCn1nc(-c2ccc(OC)cc2)c(-c2ccc(OC)c(F)c2)cc1=O | 162 °C
CCOC(=O)CN=C(c1ccccc1)c1ccccc1NC1CCN(C)CC1 | 102 to 103 °C
O=C1COCCOCC(=O)N2CCOCCOCCN1CCOCC2 | 105 °C
CC(=O)NNC1=Nc2sc(Cl)cc2C(c2ccccn2)=NC1 | 193 to 195 °C
COc1ccc2[nH]c(/C=C/C(=O)OCc3ccccc3)cc2c1 | 155 to 157 °C
COc1cc2c(cc1OC)-c1cc(=O)n(C(C)C)c(=O)n1CC2 | 190 to 192 °C
CCc1cnc2c(c1)C(=O)N(C(C)(C(N)=O)C(C)C)C2=O (stereo unspecified) | 115 to 117 °C
Cn1c2c(c3cc(OCc4ccccc4)ccc31)CC(C(N)=O)C2 (stereo unspecified) | 145 to 148 °C
COc1cn(-c2cccc(C(F)(F)F)c2)nc(C(=O)N(C)OC)c1=O | 170 to 171 °C
CC(C)(C)OC(=O)c1ncn2c1[C@@H]1CCCN1C(=O)c1cc(N)ccc1-2 | 223 to 224 °C
CC1(C)NC(=O)CN1C(=O)CNC(=O)CN1CCCC1=O | 229 to 231 °C
CC(=O)OC(C(=O)O)c1c(C(C)C)cc(C(C)C)cc1C(C)C (stereo unspecified) | 166 to 169 °C
CN1C(=O)CCC(C(=O)O)C1c1ccc2c(c1)OCO2 (stereo unspecified) | 231 to 232 °C
CC(C)(C)OC(=O)N1CCn2c(C#N)c(-c3cccc(F)c3)c(C(=O)O)c2C1 | > 210 °C
O=c1ccc2cnccc2[nH]1 | 295 to 297 °C
CC1(C)CCC(C)(C)c2cc3c(cc21)OCC3(C)c1cc(CO)cs1 (stereo unspecified) | 127 °C
